± gives the expanded uncertainty stated by the source.
Tests used:
[1] = 101 kPa, Liquid, Capillary tube (Ostwald / Ubbelohde) method
[2] = mn = molality of the nth substance listed, in mol/kg; details: 101 kPa, Liquid, m2 = 0; for viscosity: Capillary tube (Ostwald / Ubbelohde) method; for mass density: Vibrating tube method
[3] = wn = mass fraction of the nth substance listed; details: 101 kPa, Liquid, w1 = 0.009; for viscosity: Capillary tube (Ostwald / Ubbelohde) method; for mass density: Vibrating tube method

Structure (SMILES): O [water]
- viscosity ([1]; 278.15 K): 1.521 ± 0.014 mPa·s
- viscosity ([1]; 283.15 K): 1.307 ± 0.013 mPa·s
- viscosity ([1]; 288.15 K): 1.135 ± 0.011 mPa·s
- viscosity ([1]; 293.15 K): 1.002 ± 0.0094 mPa·s
- viscosity ([1]; 298.15 K): 0.8903 ± 0.0083 mPa·s
- viscosity ([1]; 303.15 K): 0.7977 ± 0.0074 mPa·s
- viscosity ([1]; 308.15 K): 0.719 ± 0.0067 mPa·s
- viscosity ([1]; 313.15 K): 0.6532 ± 0.0062 mPa·s

Structure (SMILES): O [water] + CO/N=C(\C(=O)N[C@@H]1C(=O)N2C(C(=O)[O-])=C(CSc3nc(C)c(CC(=O)[O-])s3)CS[C@H]12)c1csc(N)n1.[Na+].[Na+]
- viscosity ([2]; 278.15 K): 1.521 ± 0.014 mPa·s
- mass density ([2]; 278.15 K): 999.96 ± 0.24 kg/m3
- viscosity ([2]; 283.15 K): 1.307 ± 0.013 mPa·s
- mass density ([2]; 283.15 K): 999.7 ± 0.25 kg/m3
- viscosity ([2]; 288.15 K): 1.135 ± 0.011 mPa·s
- viscosity ([2]; 293.15 K): 1.002 ± 0.0094 mPa·s
- viscosity ([2]; 298.15 K): 0.8903 ± 0.0083 mPa·s
- viscosity ([2]; 303.15 K): 0.7977 ± 0.0074 mPa·s
- viscosity ([2]; 308.15 K): 0.719 ± 0.0067 mPa·s
- viscosity ([2]; 313.15 K): 0.6532 ± 0.0062 mPa·s

Structure (SMILES): [Cl-].[Na+] [sodium chloride] + O
- viscosity ([3]; 278.15 K): 1.53 ± 0.015 mPa·s
- mass density ([3]; 278.15 K): 1006.09 ± 0.27 kg/m3
- viscosity ([3]; 283.15 K): 1.321 ± 0.013 mPa·s
- mass density ([3]; 283.15 K): 1005.64 ± 0.27 kg/m3
- viscosity ([3]; 288.15 K): 1.154 ± 0.011 mPa·s
- mass density ([3]; 288.15 K): 1005.07 ± 0.28 kg/m3
- viscosity ([3]; 293.15 K): 1.015 ± 0.0098 mPa·s
- mass density ([3]; 293.15 K): 1004.14 ± 0.27 kg/m3
- viscosity ([3]; 298.15 K): 0.9068 ± 0.0086 mPa·s
- mass density ([3]; 298.15 K): 1002.96 ± 0.27 kg/m3
- viscosity ([3]; 303.15 K): 0.8105 ± 0.0077 mPa·s
- mass density ([3]; 303.15 K): 1001.47 ± 0.27 kg/m3
- viscosity ([3]; 308.15 K): 0.7363 ± 0.007 mPa·s
- mass density ([3]; 308.15 K): 999.75 ± 0.27 kg/m3
- viscosity ([3]; 313.15 K): 0.6641 ± 0.0065 mPa·s
- mass density ([3]; 313.15 K): 997.82 ± 0.26 kg/m3

— the NIST ThermoML archive (doi:10.1016/j.tca.2013.06.031)
